{
  "source": "patent US20060223884A1",
  "about": "“Compounds and compositions for use in the prevention and treatment of obesity and related syndromes” (priority 2005, published 2006)",
  "key": {"[1]": {"assay": "Body weight gain in C57BU6 mice shifted to a high fat diet, analogs and isomers, 3 days (Example 9)", "format": "in vivo", "settings": "100 mg/kg twice daily oral gavage; for body weight gain induced by the high fat diet: C57BU6 mice on high fat diet", "description": "C57BU6 mice were received at 6-7 weeks of age and fed a standard commercial chow for 1 week (acclimation period). The animals were randomized based on their body weight values, into control and treatment groups (n=6). Then, animals were shifted to a high fat diet (60% of calories from fat) and treated twice daily by oral gavage with 4-hydroxyisoleucine (4-OH, compound 14a) or different analogs and isomers of 4-OH at the dose of 100 mg per kg of body weight for 3 days. The control group (Control HFD) received vehicle (water) alone and a group was kept under standard chow (Control Lean). Body weight of the mice was recorded daily. Two different experiments were run and the effect on body weight gain of selected analogs and isomers according to the invention is presented in FIG. 22A (Experiment 1) and FIG. 22B (Experiment 2)."}, "[2]": {"settings": "cited from earlier work"}, "[3]": {"assay": "Body weight of DIO mice, 4-hydroxyisoleucine and metformin alone and in combination (Example 6)", "format": "in vivo, C57BU6 mice", "settings": "DIO mice, 21 days", "description": "C57BU6 mice were received at 7-8 weeks of age and fed a high fat diet (60% of calories from fat) for 8 weeks. Fasted glycemia was checked and animals with readings between 200 and 220 mg/dL were included in the study. The animals were randomized based on their body weights and glycemia values into control and treatment groups (n=8). […] The control group received vehicle (water) alone. The animals were treated for 21 days. Body weight of the mice was measured on the first day of treatment and on days 3, 7, 10, 14, 17, and 21. All data are expressed as mean±SEM."}, "[4]": {"assay": "Weight gain and epididymal fat of DIO-C57Bl/6 mice, 4-hydroxyisoleucine and Exendin-4 alone or in combination (Example 5)", "format": "in vivo, C57BI/6 mice", "settings": "s.c., 21 days", "description": "(§1) Glycemic response was monitored by an Oral Glucose Tolerance Test (OGTT) performed on days 0, 7, 14, and 21 of treatment.\n(§2) A total of 56 animals were used in the study. The animals were distributed into 7 groups (5 treated, 1 normal diet control, and 1 high fat diet control group). Each group was composed of 8 animals. […] For the three weeks of treatment, the test agents were dissolved in sterile saline for injection (USP). 4-Hydroxyisoleucine was kept at 4° C. (administration to groups 3, 4, and 7) while a frozen aliquot of Exendin-4 was thawed each dosing day for administration to groups 5, 6, and 7. Control animals received sterile saline, twice daily (groups 1 and 2). […] Animals from groups 5 and 6 received sterile saline as the AM treatment, while the PM treatment consisted of 0.05 and 0.01 mg/kg of Exendin-4, respectively. For Group 7, the AM treatment consisted of 50 mg/kg 4-OH only, while the PM treatment consisted of 0.01 mg/kg of Exendin-4+50 mg/kg of 4-OH. All groups were treated by subcutaneous injection."}, "[5]": {"assay": "Oral Glucose Tolerance Test (OGTT) in DIO mice, 4-hydroxyisoleucine and Exendin-4 alone or in combination (Example 5)", "format": "in vivo, C57BI/6 mice", "settings": "single agent, 4-OH 50 mg/kg or Exendin-4 0.01 mg/kg, after 7, 14 and 21 days of treatment", "description": "as §1, §2\nOn days 0, 7, 14, and 21, animals fasted for approximately 5 hours were challenged with an Oral Glucose Tolerance Test (OGTT) at 5 hours post-AM test agent administration. Whole blood glucose levels were monitored using a hand-held glucometer prior to OGTT and for up to 2 hours post-glucose challenge."}, "[6]": {"assay": "Body weight gain and epididymal fat pad in the DIO mouse model, Compound 13e (Example 8)", "format": "in vivo, C57BU6 mice", "settings": "25 or 50 mg/kg twice daily oral gavage, 21 days", "description": "The objective of this study was to determine the effect of one analog according to the invention, namely Compound 13e, on body weight gain in the Diet-Induced Obesity (DIO) mouse model.\nC57BU6 mice were received at 7-8 weeks of age and fed a high fat diet (60% of calories from fat) for 8 weeks. Fasted glycemia and body weight values were used to randomize the mice into control and treatment groups (n=8). The average basal glycemia was between 213 and 215 mg/dL for all groups. The animals were treated twice daily by oral gavage with Compound 13e (25 or 50 mg per kg of body weight), and the control group received vehicle (200 mM bicarbonate buffer/0.1% Tween-20™, pH =9) alone. The animals were treated for 21 days. Body weight of the mice was measured on a frequent basis during the treatment. At the end of the study, the epididymal fat pads were isolated and weighed. Data are expressed as mean±SEM of body weight and mean±SEM of fat pad weight."}, "[7]": {"assay": "Body weight of DIO mice, 4-hydroxyisoleucine and Rimonabant alone and in combination (Example 7)", "format": "in vivo, C57BU6 mice", "settings": "oral", "description": "C57BU6 mice were received at 7-8 weeks of age and fed a high fat diet (60% of calories from fat) for 8 weeks. Seven days prior to treatment, animals were randomized based on their body weight and fasted glycemia values into control and treated groups (n=8). The animals were treated by oral gavage twice daily with 4-OH (50 mg/kg of body weight; group 2), once daily in the afternoon with Rimonabant (0.1 mg/kg; group 3), and a combination of the two treatments (4-OH 50 mg/kg twice daily +Rimonabant 0.1 mg/kg once daily; group 4). The control group (group 1) received vehicle alone twice daily. After 3 weeks of treatment (day 22), the doses were increased as follows: 4-OH 100 mg/kg twice daily (group 2), Rimonabant 1 mg/kg once daily (group 3), and the combination (4-OH 100 mg/kg twice daily+Rimonabant 1 mg/kg once daily; group 4). The animals were treated for 1 week with these higher doses. Body weight of the mice was recorded every day for all groups from Day 6 to Day 28."}},
  "note": "Structures can show the parent of a compound that is named as a salt.",
  "data": [
    {"compound": "O=C(O)[C@@H]1C[C@H](O)CN1", "note": "[compound 75, cis-4-hydroxyproline]", "values": [
      {"measurement": "body weight gain induced by the high fat diet", "setting": "[1]", "result": "reduced body weight gain induced by the high fat diet"}
    ]},
    {"compound": "CN(C)C(=N)N=C(N)N", "note": "[metformin]", "values": [
      {"measurement": "blood glucose levels", "setting": "[2]; by increasing insulin sensitivity (Stumvoll et al. 1995)", "result": "lowers blood glucose levels"},
      {"measurement": "body weight", "setting": "[2]; most studies conducted in patients with type 2 diabetes (Hundal et al. 2003)", "result": "reduce body weight"},
      {"measurement": "weight", "setting": "[2]; obese individuals without diabetes (Glueck et al. 2001)", "result": "induced weight loss"},
      {"measurement": "body weight as compared to vehicle-treated mice", "setting": "[3]; 100 mg/kg twice daily oral, only 4-OH significant (p<0.01 4-OH, p=0.27 metformin)", "result": "reduction of their body weight"},
      {"measurement": "body weight compared to control DIO mice, given alone", "setting": "[3]; 4-OH 50 mg/kg or metformin 25 mg/kg twice daily oral", "result": "no significant effect on body weight"}
    ]},
    {"compound": "COC(=O)[C@@H]1C[C@H](O)CN1", "note": "[compound 76, cis-4-hydroxyproline methyl ester HCl salt]", "values": [
      {"measurement": "body weight gain induced by the high fat diet", "setting": "[1]", "result": "reduced body weight gain induced by the high fat diet"}
    ]},
    {"compound": "CC1(O)CC(C(=O)O)NCC1O", "note": "(centres unmarked) [compound 65a, 4-methyl-4,5-dihydroxypipecolic acid]", "values": [
      {"measurement": "efficacy on body weight gain relative to compound #14a", "setting": "[1]", "result": "greater efficacy than the SRS isomer of 4-OH"},
      {"measurement": "body weight gain induced by the high fat diet", "setting": "[1]", "result": "reduced body weight gain induced by the high fat diet"}
    ]},
    {"compound": "Exendin-4: glucagon-like peptide 1 (GLP-1) receptor agonist", "values": [
      {"measurement": "body weight gain", "setting": "[4]; 4-OH 50 mg/kg twice daily, Exendin-4 0.01 mg/kg (PM), alone or in combination", "result": "decrease in body weight gain"},
      {"measurement": "weight of epididymal fat", "setting": "[4]; 4-OH 100 mg/kg, Exendin-4 0.01 mg/kg, combination 4-OH 50 mg/kg + Exendin-4 0.01 mg/kg", "result": "not effective"},
      {"measurement": "weight of epididymal fat", "setting": "[4]; Exendin-4 0.05 mg/kg", "result": "effective"},
      {"measurement": "glycemic levels following OGTT challenge", "setting": "[5]", "result": "effective"}
    ]},
    {"compound": "N[C@H](C(=O)O)[C@@H]1CCCC[C@H]1O", "note": "[Compound 13e, (S)-2-amino-2-((1S,2R)-2-hydroxycyclohexyl)acetic acid]", "values": [
      {"measurement": "body weight gain compared to vehicle treated mice", "setting": "[6]", "result": "reduction in body weight gain"},
      {"measurement": "dose dependence of the effect on body weight gain", "setting": "[6]; DIO mice", "result": "dose-dependent"},
      {"measurement": "epididymal fat pad weight", "setting": "[6]; DIO mice, grams per 10 grams of body weight", "result": "reduction of epididymal fat pad weight"}
    ]},
    {"compound": "CC(=O)N[C@@H]1C(=O)O[C@@H](C)[C@@H]1C", "note": "[compound 104]", "values": [
      {"measurement": "body weight gain induced by the high fat diet", "setting": "[1]", "result": "reduced body weight gain induced by the high fat diet"}
    ]},
    {"compound": "CC(C)(C)C(O)CC(N)C(=O)O", "note": "(centres unmarked) [compound 62, 2-amino-4-hydroxy-5,5-dimethyl-hexanoic acid]", "values": [
      {"measurement": "efficacy on body weight gain relative to compound #14a", "setting": "[1]", "result": "greater efficacy than the SRS isomer of 4-OH"},
      {"measurement": "body weight gain induced by the high fat diet", "setting": "[1]", "result": "reduced body weight gain induced by the high fat diet"}
    ]},
    {"compound": "COC(=O)[C@H]1C[C@@H](O)CN1", "note": "[compound 202]", "values": [
      {"measurement": "body weight gain induced by the high fat diet", "setting": "[1]", "result": "reduced body weight gain induced by the high fat diet"}
    ]},
    {"compound": "C[C@H]([C@@H](C)O)[C@@H](N)C(=O)O", "note": "[compound 14aa, (2R,3S,4R)-4-Hydroxyisoleucine]", "values": [
      {"measurement": "body weight gain induced by the high fat diet", "setting": "[1]", "result": "reduced body weight gain induced by the high fat diet"}
    ]},
    {"compound": "Cc1c(C(=O)NN2CCCCC2)nn(-c2ccc(Cl)cc2Cl)c1-c1ccc(Cl)cc1", "note": "[Rimonabant, 5-(4-Chlorophenyl)-1-(2,4-dichlorophenyl)-4-methyl-N-(piperidin-1-yl)-1H-pyrazole-3-carboxamide, reference compound]", "values": [
      {"measurement": "body weight gain after 21 days (low dosage treatment)", "setting": "[7]; 4-OH 50 mg/kg twice daily, Rimonabant 0.1 mg/kg once daily, alone or in combination", "result": "slight reduction of body weight gain"},
      {"measurement": "body weight after dose increase (day 22 to 28)", "setting": "[7]; 4-OH 100 mg/kg twice daily, Rimonabant 1 mg/kg once daily, alone or in combination (combination compared to each compound separately)", "result": "immediately reduced the body weight"}
    ]}
  ]
}
